In publication PMC7203124, “Structural Basis for PPARα Activation by 1H-pyrazolo-[3,4-b]pyridine Derivatives” (Scientific Reports, 2020):

Biological target: T1, PPARα (Homo sapiens, UniProt Q07869, I272F)
T1 construct: gene PPARA; hPPARα LBD
T1 sequence (Q07869 199-468 I272F limits assumed): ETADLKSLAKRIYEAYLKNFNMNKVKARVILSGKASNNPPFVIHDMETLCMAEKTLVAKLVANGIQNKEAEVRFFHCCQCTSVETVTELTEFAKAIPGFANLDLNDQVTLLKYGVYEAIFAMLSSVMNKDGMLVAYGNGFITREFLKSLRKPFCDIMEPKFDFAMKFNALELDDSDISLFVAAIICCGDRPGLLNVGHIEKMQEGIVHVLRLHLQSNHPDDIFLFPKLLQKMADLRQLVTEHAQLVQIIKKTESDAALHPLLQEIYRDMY
Experiment: transactivation reporter assay at […]
Format: cell-based

In the case of `CC(C)(Oc1ccc(C(=O)c2ccc(Cl)cc2)cc1)C(=O)O` [fenofibric acid], the “transactivation reporter assay at 10 μM” value is reported as “while fenofibric acid showed comparable activity between WT and Ile272Phe”.
